Reference: US20250177564A1, “GENE THERAPY FOR THE TREATMENT OF HT1” (LogicBio Therapeutics, Inc., priority 2021, published 2025)

What was measured:
[1] = test system: Fah−/− mice; experiment: Compatibility between NTBC (standard of care) and GENERIDE, NTBC titration; format: in vivo, mouse; conditions: high doses of NTBC
Method: Four-week-old Fah−/− animals were treated with rAAV.DJ-GR-mFAH at dosages of 1e14 vg/kg via retro-orbital sinus under anesthesia. All mice were kept on 8 mg/L of NTBC prior to the initiation of the study until 4 weeks post dosing, and then NTBC were either maintained at 8 mg/L (control) or titrated down to 3 mg/L, 0.8 mg/L, or 0.3 mg/L for 8 weeks. During the study, animals were sampled periodically by submandibular bleed and plasma was collected and stored at −80° C. until further analysis. At sacrifices, blood was collected for plasma via cardiac puncture. For liver dissection, one lobe of liver was fixed by 10% formalin, and the remaining was snap-frozen and stored at −80° C. Next day, formalin-fixed liver was transferred to 70% ethanol for paraffin embedding.
Viral vectors comprising an AAV-DJ viral capsid, mouse FAH (mFAH) transgene, P2A sequence, and flanking 5′ homology arm 1000 nucleotides (nt) in length and a 3′ homology arm 1600 nt in length homology arms were constructed. Homology arms were designed for complementarity to a mouse genomic albumin target integration site. Viral vectors herein described were administered at a dosage of 1e14 vg/kg to […] groups (Groups 1, 2, 3, 4) of Fah−/− mice via intravenous injection at 4 weeks of age. […] Mice were assessed for circulating biomarkers (e.g., levels of ALB-2A) for up to 6 weeks post-NTBC titration (FIG. 4B).

[2] = test system: Fah−/− mice; experiment: Disease progression and resolution with and without NTBC (NTBC cycling); format: in vivo, mouse
Method: Fah−/− mice were kept on 8 mg/L of NTBC-drinking water prior to the initiation of the study at 7 weeks of age. Animals were then supplied with regular water (NTBC off) for 7 days, followed by NTBC-containing water at 8 mg/L for another 7 days. The above cycling was repeated for another 14 days. During the study, animals were monitored for daily body weight. Submandibular blood and urine were sampled periodically, and serum and plasma were collected and stored at −80° C. until further analysis. At sacrifice, blood was collected for plasma via cardiac puncture. For liver dissection, one lobe of liver was fixed by 10% formalin, and the remaining was snap-frozen and stored at −80° C. The following day, the formalin-fixed liver was transferred to 70% ethanol for paraffin embedding.

[3] = test system: HT1 patients; conditions: cited from earlier work

With `O=C1CCCC(=O)C1C(=O)c1ccc(C(F)(F)F)cc1[N+](=O)[O-]` [NTBC, 2-(2-nitro-4-trifluoromethylbenzoyl)-1,3cyclohexanedione] the “effect on selective expansion of GENERIDE edited cells (hepatocytes)” value [1] was “prevent selective expansion”, the “time to restore levels of disease biomarkers (SUAC) and liver synthetic function (aPTT, ALT, blood glucose)” value ([2]; NTBC 8 mg/L drinking water) was “less than 7 days” and the “time to abnormal levels of disease biomarkers (SUAC) and liver synthetic function upon withdrawal” value ([2]; NTBC withdrawal) was “less than 3 days”. The “risk of developing HCC, NTBC started after the neonatal period compared to patients treated as neonates” value [3] was 2-12 fold.
